Assay results taken from patent publication US20090082358A1, “Vanilloid receptor ligands and their use in treatments” (priority 2007, published 2009).

molecular target: T1, human TRPM8 (Homo sapiens, UniProt Q7Z2W7); assay: Luminescence readout assay for measuring intracellular calcium (aequorin), antagonism of cold buffer activation; format: cell-based; settings: CHO cells expressing human TRPM8; activation by cold buffer (<10° C.)
T1 construct: expressed in transfected cells; host or cells: CHO cells, T-REx tetracycline-inducible expression system (Invitrogen), co-transfected with pcDNA3.1 aequorin
T1 sequence (Q7Z2W7 whole entry): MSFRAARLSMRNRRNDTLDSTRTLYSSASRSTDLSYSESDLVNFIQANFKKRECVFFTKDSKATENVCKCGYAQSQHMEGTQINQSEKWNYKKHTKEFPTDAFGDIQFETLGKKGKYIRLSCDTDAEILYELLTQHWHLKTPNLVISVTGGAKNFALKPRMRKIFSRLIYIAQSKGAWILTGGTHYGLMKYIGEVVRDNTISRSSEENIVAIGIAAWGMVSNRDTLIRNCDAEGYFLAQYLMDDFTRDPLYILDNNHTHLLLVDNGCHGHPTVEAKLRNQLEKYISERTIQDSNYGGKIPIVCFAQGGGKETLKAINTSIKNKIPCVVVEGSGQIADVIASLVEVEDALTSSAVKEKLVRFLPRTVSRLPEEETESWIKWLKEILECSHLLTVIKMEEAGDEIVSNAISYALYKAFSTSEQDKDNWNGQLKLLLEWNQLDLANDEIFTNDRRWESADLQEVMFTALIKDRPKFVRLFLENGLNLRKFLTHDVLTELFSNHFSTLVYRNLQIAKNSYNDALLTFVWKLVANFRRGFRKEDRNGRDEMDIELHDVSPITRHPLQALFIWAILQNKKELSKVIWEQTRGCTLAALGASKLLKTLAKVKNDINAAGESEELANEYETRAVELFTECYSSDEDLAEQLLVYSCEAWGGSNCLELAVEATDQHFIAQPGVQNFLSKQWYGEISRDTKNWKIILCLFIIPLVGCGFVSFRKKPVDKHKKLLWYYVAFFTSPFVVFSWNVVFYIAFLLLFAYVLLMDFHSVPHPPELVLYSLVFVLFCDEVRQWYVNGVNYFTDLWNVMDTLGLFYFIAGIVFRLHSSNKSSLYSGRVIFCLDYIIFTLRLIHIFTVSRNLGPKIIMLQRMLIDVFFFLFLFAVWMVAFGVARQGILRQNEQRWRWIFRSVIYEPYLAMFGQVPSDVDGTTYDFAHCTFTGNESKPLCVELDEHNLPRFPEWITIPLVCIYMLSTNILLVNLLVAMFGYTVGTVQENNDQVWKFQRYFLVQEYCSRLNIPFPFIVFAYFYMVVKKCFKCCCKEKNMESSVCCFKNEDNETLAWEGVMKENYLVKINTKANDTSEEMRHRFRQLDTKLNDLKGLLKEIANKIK
Method: Luminescence readout assay for measuring intracellular calcium. Stable CHO cell lines expressing human TRPM8 were generated using tetracycline inducible T-REx™ expression system from Invitrogen, Inc (Carlsbad, Calif.). […] Twenty four hours before the assay, cells were seeded in 96-well plates and TRP channel expression was induced with 0.5 μg/ml tetracycline.

IC50, < 5 µM:
Cc1noc(C)c1NC(=O)N1CCc2cccnc2[C@H]1c1ccc(C(F)(F)F)cc1 [Example 27, (R)—N-(3,5-dimethylisoxazol-4-yl)-8-(4-(trifluoromethyl)phenyl)-5,6-dihydro-1,7-naphthyridine-7(8H)-carboxamide]
CC(C)NC(=O)N1CCc2nccnc2[C@H]1c1ccc(C(F)(F)F)cc1 [Example 38, (R)—N-Isopropyl-5-(4-(trifluoromethyl)phenyl)-7,8-dihydropyrido[3,4-b]pyrazine-6(5H)-carboxamide]
C[C@@H](NC(=O)N1CCc2cccnc2[C@H]1c1ccc(C(F)(F)F)cc1)c1ccccc1 [Example 29, (R)—N—((R)-1-phenylethyl)-8-(4-(trifluoromethyl)phenyl)-5,6-dihydro-1,7-naphthyridine-7(8H)-carboxamide]
CCOC(=O)N1C=Cc2cccnc2C1c1ccc(C(F)(F)F)cc1 (stereo not shown) [Example 5, Ethyl 8-(4-(trifluoromethyl)phenyl)-1,7-naphthyridine-7(8H)-carboxylate]
O=C(NCc1ccccc1)N1CCc2cccnc2[C@H]1c1ccc(C(F)(F)F)cc1 [Example 32, (R)—N-benzyl-8-(4-(trifluoromethyl)phenyl)-5,6-dihydro-1,7-naphthyridine-7(8H)-carboxamide]
O=C(Nc1ccc(F)cc1)N1CCc2c(-c3ccc(F)cc3)ccnc2[C@H]1c1ccc(C(F)(F)F)cc1 [Example 54, (R)—N,4-bis(4-fluorophenyl)-8-(4-(trifluoromethyl)phenyl)-5,6-dihydro-1,7-naphthyridine-7(8H)-carboxamide]
O=C(Nc1ccc(F)cc1)N1CCc2cccnc2C1c1ccc(-c2ccccc2)cc1 (stereo not shown) [Example 47, N-(4-Fluorophenyl)-8-(4-biphenyl)-5,6-dihydro-1,7-naphthyridine-7(8H)-carboxamide]
O=C(Nc1ccc(F)cc1)N1CCc2cccnc2C1c1ccc(F)cc1 (stereo not shown) [Example 46, N,8-Bis(4-fluorophenyl)-5,6-dihydro-1,7-naphthyridine-7(8H)-carboxamide]
O=C(Nc1cccnc1)N1CCc2nccnc2[C@H]1c1ccc(C(F)(F)F)cc1 [Example 39, (R)—N-(Pyridin-3-yl)-5-(4-(trifluoromethyl)phenyl)-7,8-dihydropyrido[3,4-b]pyrazine-6(5H)-carboxamide]
O=C(OCc1ccccc1)N1C=Cc2cccnc2C1c1ccc(C(F)(F)F)cc1 (stereo not shown) [Example 43, Benzyl 8-(4-(trifluoromethyl)phenyl)-1,7-naphthyridine-7(8H)-carboxylate]
O=C(N[C@H]1C[C@H]1c1ccccc1)N1CCc2cccnc2[C@H]1c1ccc(C(F)(F)F)cc1 [Example 36, (R)—N-((1S,2S)-2-phenylcyclopropyl)-8-(4-(trifluoromethyl)phenyl)-5,6-dihydro-1,7-naphthyridine-7(8H)-carboxamide]
O=C(Nc1ccc(F)c(F)c1)N1CCc2cccnc2[C@H]1c1ccc(C(F)(F)F)cc1 [Example 26, (R)—N-(3,4-difluorophenyl)-8-(4-(trifluoromethyl)phenyl)-5,6-dihydro-1,7-naphthyridine-7(8H)-carboxamide]
O=C(Nc1ccccc1F)N1CCc2cccnc2[C@H]1c1ccc(C(F)(F)F)cc1 [Example 21, (R)—N-(2-fluorophenyl)-8-(4-(trifluoromethyl)phenyl)-5,6-dihydro-1,7-naphthyridine-7(8H)-carboxamide]
C[C@@H]1Cc2cccnc2[C@H](c2ccc(C(F)(F)F)cc2)N1C(=O)Nc1ccc(F)cc1 (racemic) [Example 48, (6R,8)-N-(4-Fluorophenyl)-6-methyl-8-(4-(trifluoromethyl)phenyl)-5,6-dihydro-1,7-naphthyridine-7(8H)-carboxamide and (6S,8R)—N-(4-fluorophenyl)-6-methyl-8-(4-(trifluoromethyl)phenyl)-5,6-dihydro-1,7-naphthyridine-7(8H)-carboxamide]
O=C(Nc1cccc(F)c1)N1CCc2cccnc2[C@H]1c1ccc(C(F)(F)F)cc1 [Example 33, (R)—N-(3-fluorophenyl)-8-(4-(trifluoromethyl)phenyl)-5,6-dihydro-1,7-naphthyridine-7(8H)-carboxamide]
O=C(Nc1ccc(C(F)(F)F)cc1)N1CCc2cccnc2[C@H]1c1ccc(C(F)(F)F)cc1 [Example 40, (R)—N,8-Bis(4-(trifluoromethyl)phenyl)-5,6-dihydro-1,7-naphthyridine-7(8H)-carboxamide]
COc1ccccc1NC(=O)N1CCc2cccnc2[C@H]1c1ccc(C(F)(F)F)cc1 [Example 20, (R)—N-(2-methoxyphenyl)-8-(4-(trifluoromethyl)phenyl)-5,6-dihydro-1,7-naphthyridine-7(8H)-carboxamide]
O=C(Nc1ccc2c(c1)OCO2)N1CCc2cccnc2[C@H]1c1ccc(C(F)(F)F)cc1 [Example 37, (R)—N-(benzo[d][1,3]dioxol-5-yl)-8-(4-(trifluoromethyl)phenyl)-5,6-dihydro-1,7-naphthyridine-7(8H)-carboxamide]
N#Cc1cccc(NC(=O)N2CCc3cccnc3[C@H]2c2ccc(C(F)(F)F)cc2)c1 [Example 42, (R)—N-(3-Cyanophenyl)-8-(4-(trifluoromethyl)phenyl)-5,6-dihydro-1,7-naphthyridine-7(8H)-carboxamide]
COc1ccc(NC(=O)N2CCc3cccnc3[C@H]2c2ccc(C(F)(F)F)cc2)cc1 [Example 35, (R)—N-(4-methoxyphenyl)-8-(4-(trifluoromethyl)phenyl)-5,6-dihydro-1,7-naphthyridine-7(8H)-carboxamide]
CCOC(=O)N1C=Cc2nccnc2C1c1ccc(C(F)(F)F)cc1 (stereo not shown) [Example 12, Ethyl 5-(4-(trifluoromethyl)phenyl)pyrido[3,4-b]pyrazine-6(5H)-carboxylate]
CCOC(=O)N1C=Cc2cccnc2C1c1ccc(F)cc1 (stereo not shown) [Example 44, Ethyl 8-(4-fluorophenyl)-1,7-naphthyridine-7(8H)-carboxylate]
N#Cc1ccccc1NC(=O)N1CCc2cccnc2[C@H]1c1ccc(C(F)(F)F)cc1 [Example 41, (R)—N-(2-Cyanophenyl)-8-(4-(trifluoromethyl)phenyl)-5,6-dihydro-1,7-naphthyridine-7(8H)-carboxamide]
CN(C)c1ccc(NC(=O)N2CCc3cccnc3[C@H]2c2ccc(C(F)(F)F)cc2)cc1 [Example 25, (R)—N-(4-(dimethylamino)phenyl)-8-(4-(trifluoromethyl)phenyl)-5,6-dihydro-1,7-naphthyridine-7(8H)-carboxamide]
Cc1ccnc2c1CCN(C(=O)Nc1ccc(F)cc1)[C@@H]2c1ccc(C(F)(F)F)cc1 [Example 55, (R)—N-(4-fluorophenyl)-4-methyl-8-(4-(trifluoromethyl)phenyl)-5,6-dihydro-1,7-naphthyridine-7(8H)-carboxamide]
C[C@@H]1CN(C(=O)Nc2ccc(F)cc2)[C@H](c2ccc(C(F)(F)F)cc2)c2ncccc21 (racemic) [Example 49, (5S,8R)—N-(4-Fluorophenyl)-5-methyl-8-(4-(trifluoromethyl)phenyl)-5,6-dihydro-1,7-naphthyridine-7(8H)-carboxamide and (5R,8S)—N-(4-fluorophenyl)-5-methyl-8-(4-(trifluoromethyl)phenyl)-5,6-dihydro-1,7-naphthyridine-7(8H)-carboxamide]
CCOC(=O)N1CCc2cccnc2C1c1ccc(F)cc1 (stereo not shown) [Example 45, Ethyl 8-(4-fluorophenyl)-5,6-dihydro-1,7-naphthyridine-7(8H)-carboxylate]
O=C(Nc1ccccn1)N1CCc2cccnc2[C@H]1c1ccc(C(F)(F)F)cc1 [Example 30, (R)—N-(pyridin-2-yl)-8-(4-(trifluoromethyl)phenyl)-5,6-dihydro-1,7-naphthyridine-7(8H)-carboxamide]
O=C(NCCc1ccccc1)N1CCc2cccnc2[C@H]1c1ccc(C(F)(F)F)cc1 [Example 22, (R)—N-phenethyl-8-(4-(trifluoromethyl)phenyl)-5,6-dihydro-1,7-naphthyridine-7(8H)-carboxamide]
C[C@H](NC(=O)N1CCc2cccnc2[C@H]1c1ccc(C(F)(F)F)cc1)c1ccccc1 [Example 24, (R)—N—((S)-1-phenylethyl)-8-(4-(trifluoromethyl)phenyl)-5,6-dihydro-1,7-naphthyridine-7(8H)-carboxamide]
O=C(Nc1ccc(-c2ccccc2)cc1)N1CCc2cccnc2[C@H]1c1ccc(C(F)(F)F)cc1 [Example 31, (R)—N-(4-biphenyl)-8-(4-(trifluoromethyl)phenyl)-5,6-dihydro-1,7-naphthyridine-7(8H)-carboxamide]
O=C(Nc1ccc(Cl)cc1)N1CCc2cccnc2[C@H]1c1ccc(C(F)(F)F)cc1 [Example 23, (R)—N-(4-chlorophenyl)-8-(4-(trifluoromethyl)phenyl)-5,6-dihydro-1,7-naphthyridine-7(8H)-carboxamide]
CCOC(=O)N1C=Cc2ncccc2C1c1ccc(C(F)(F)F)cc1 (stereo not shown) [Example 1, Ethyl 5-(4-(trifluoromethyl)phenyl)-1,6-naphthyridine-6(5H)-carboxylate]
CC(C)(C)NC(=O)N1CCc2cccnc2[C@H]1c1ccc(C(F)(F)F)cc1 [Example 28, (R)—N-tert-butyl-8-(4-(trifluoromethyl)phenyl)-5,6-dihydro-1,7-naphthyridine-7(8H)-carboxamide]
